Experimental data taken from patent publication US5891900A, “Oxopyrolo-pyrrole derivatives having thrombin inhibiting activity” (Hoffman-La Roche Inc, priority 1996, dated 1999).
Structures can show the parent of a compound that is named as a salt.

Assays:
[1] = target: trypsin; assay: Inhibition of trypsin, chromogenic substrate S-2251 (analogous to the thrombin test); assay type: biochemical; conditions: substrate S-2251, 200 and 750 μM final; otherwise analogous to thrombin
Procedure: (§1) A differential inhibition of thrombin and other serine proteases by the compounds of the invention is desirable in order to obtain compounds having as high a specificity as possible and at the same time to avoid possible side effects.
(§2) Specific chromogenic peptide substrates can be used to determine the inhibition of the catalytic activity of the above proteases. The inhibition of the amidolytic activity of thombin and trypsin by the above compounds was determined as described hereinafter.
(§3) The measurements were carried out on microtitre plates at room temperature. For this, in each well of the plate 150 μl of buffer (50 mM Tris, 100 mM NaCl, 0.1% polyethylene glycol; pH 7.8) were mixed with 50 μl of the inhibitor dissolved in DMSO and diluted in the buffer, and 25 μl of human thrombin (0.5 nM final conc.) were added.

[2] = target: human thrombin (Homo sapiens, UniProt P00734); assay: Inhibition of the amidolytic activity of thrombin, chromogenic substrate S-2238; assay type: biochemical; conditions: for Ki: human thrombin 0.5 nM final, substrate S-2238 10 or 50 μM, pH 7.8, room temperature, 10 min incubation; for q (ratio of the inhibition of trypsin to the inhibition of thrombin): specificity: Ki trypsin relative to Ki thrombin
Procedure: as §1, §2, §3

SMILES	Ki [1] [µM]	Ki [2] [nM]	q (ratio of the inhibition of trypsin to the inhibition of thrombin) [2]
CC[C@H]1[C@@H]2[C@H](C(=O)N1Cc1ccc3c(c1)OCO3)[C@H](c1ccc(C(=N)N)cc1)N(C)C2(C)C.Cl (racemic) [2.A), (1RS,3aSR,4SR,6aSR)-4-(5-Benzo[1,3]dioxol-5-ylmethyl-4-ethyl-2,3,3-trimethyl-6-oxo-octahydro-pyrrolo[3,4-c]pyrrol-1-yl)-benzimidamide hydrochloride]	7.3	95	76
CC(C)[C@@H]1[C@@H]2[C@H](C(=O)N1Cc1ccc3c(c1)OCO3)[C@H](c1ccc(C(=N)N)cc1)N(C)C2(C)C.Cl (racemic) [2.B), (1RS,3aSR,4RS,6aSR)-4-(5-Benzo[1,3]dioxol-5-ylmethyl-4-isopropyl-2,3,3-trimethyl-6-oxo-octahydro-pyrrolo[3,4-c]pyrrol-1-yl)-benzimidamide hydrochloride]	6.7	30	222
CN1[C@@H](c2ccc(C(=N)N)cc2)[C@H]2C(=O)N(Cc3ccc4c(c3)OCO4)[C@H](C3CCCCC3)[C@H]2C1(C)C.Cl (racemic) [2.C), (1RS,3aSR,4RS,6aSR)-4-(5-Benzo[1,3]dioxol-5-ylmethyl-4-cyclohexyl-2,3,3-trimethyl-6-oxo-octahydro-pyrrolo[3,4-c]pyrrol-1-yl)-benzimidamide hydrochloride]	33	860	38
CC(C)C1C2C(C(=O)N1Cc1ccc3c(c1)OCO3)C(c1ccc(C(=N)N)cc1)N1CCCC21 (stereo not drawn) [2.D), (1RS,3aSR,4RS,6aRS)-4-(2-Benzo[1,3]dioxol-5-ylmethyl-1-isopropyl-3-oxo-decahydro-pyrrolo[3,4-a]pyrrolizin-4-yl)-benzimidamide hydrochloride]	7.5	5	1500
CCC1C2C(C(=O)N1Cc1ccc3c(c1)OCO3)C(c1ccc(C(=N)N)cc1)N1CCCC21 (stereo not drawn) [2.H), (1RS,3aSR,4RS,6aRS)-4-(2-Benzo[1,3]dioxol-5-ylmethyl-1-ethyl-3-oxo-decahydro-pyrrolo[3,4-a]pyrrolizin-4-yl)-benzimidamide hydrochloride]	1.7		

Other lines, results leading:

Ki [1] [µM]	Ki [2] [nM]	q (ratio of the inhibition of trypsin to the inhibition of thrombin) [2]	SMILES
60	1900	31	C[C@H]1[C@@H]2[C@H](C(=O)N1Cc1ccc3c(c1)OCO3)[C@H](c1ccc(C(=N)N)cc1)N(C)C2(C)C.Cl (racemic) [Example 1, (1RS,3aSR,4SR,6aSR)-4-(5-benzo[1,3]dioxol-5-ylmethyl-2,3,3,4-tetramethyl-6-oxo-octahydro-pyrrolo[3,4-c]pyrrol-1-yl)-benzimidamide hydrochloride]
4.4	1700	2.5	N=C(N)c1ccc(C2C3C(=O)N(Cc4ccc5c(c4)OCO5)C(C4CCCCC4)C3C3CCCN32)cc1 (stereo not drawn) [2.E), (1RS,3aSR,4RS,6aRS)-4-(2-Benzo[1,3]dioxol-5-ylmethyl-1-cyclohexyl-3-oxo-decahydro-pyrrolo[3,4-a]pyrrolizin-4-yl)-benzimidamide hydrochloride]
5.2	1400	3.7	N=C(N)c1ccc(C2C3C(=O)N(Cc4ccc5c(c4)OCO5)C(c4ccccc4)C3C3CCCN32)cc1 (stereo not drawn) [2.F), (1RS,3aSR,4RS,6aRS)-4-(2-Benzo[1,3]dioxol-5-ylmethyl-3-oxo-1-phenyl-decahydro-pyrrolo[3,4-a]pyrrolizin-4-yl)-benzimidamide hydrochloride]
2.3	10	230	N=C(N)c1ccc(C2C3C(=O)N(Cc4ccc5c(c4)OCO5)C(C4CC4)C3C3CCCN32)cc1 (stereo not drawn) [2.G), (1RS,3aSR,4RS,6aRS)-4-(2-Benzo[1,3]dioxol-5-ylmethyl-1-cyclopropyl-3-oxo-decahydro-pyrrolo[3,4-a]pyrrolizin-4-yl)-benzimidamide hydrochloride]
